The results in this text go back to PubChem BioAssay (NCI).

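How tested: cells in 96-well plates exposed to compound for 48 hours at five concentrations. GI50 is the concentration that inhibits growth by half. Definition used: TGI = concentration required for complete inhibition of growth.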

Some test systems named below: MDA-MB-435; HT29 colon; CCRF-CEM leukemia; SK-MEL-2 melanoma; OVCAR-3 ovarian; RXF 393 renal; U251 CNS; SF-295 CNS.
What all share (assay): NCI-60 cell line screen, 48 h

In the case of `CCOc1ccc(Nc2ccnc3cc(Cl)ccc23)cc1`, the GI50 in the assay on MDA-MB-435 was over 100 µM; in the assay with HT29 colon it was 3.88 µM; with CCRF-CEM leukemia it was over 100 µM; in the assay with SK-MEL-2 melanoma it was over 100 µM; in the assay with OVCAR-3 ovarian it was over 100 µM; in the assay on RXF 393 renal, 72.3 µM. Besides, the values for the GI50 in the assay on U251 CNS and in the assay on SF-295 CNS were over 100 µM and 34.4 µM, respectively. In addition, the TGI with MDA-MB-435, with HT29 colon, in the assay on CCRF-CEM leukemia, in the assay with SK-MEL-2 melanoma, in the assay on OVCAR-3 ovarian and with RXF 393 renal was over 100 µM each time. The TGI with U251 CNS and in the assay with SF-295 CNS was over 100 µM each time.

For the compound `C/C(COc1ccc2oc(-c3ccccc3)cc(=O)c2c1)=N\O`, the GI50 was 0.556 µM in the assay on MDA-MB-435; 22.7 µM in the assay with HT29 colon; 41.4 µM with CCRF-CEM leukemia; over 100 µM in the assay with SK-MEL-2 melanoma; 7.39 µM in the assay with OVCAR-3 ovarian; over 100 µM with RXF 393 renal. Also, the GI50 is 14.4 µM in the assay with U251 CNS and 12.8 µM with SF-295 CNS. The TGI with MDA-MB-435 is 2.94 µM; in the assay with HT29 colon it was over 100 µM; in the assay with CCRF-CEM leukemia it was over 100 µM; in the assay on SK-MEL-2 melanoma it was over 100 µM; in the assay on OVCAR-3 ovarian, 54.2 µM; in the assay with RXF 393 renal it was over 100 µM. The TGI was 37.2 µM with U251 CNS and 33.6 µM in the assay on SF-295 CNS.

Take `Cc1cc(C)c([I+]c2c(C)cc(C)cc2C)c(C)c1`: the GI50 in the assay on MDA-MB-435 is 0.327 µM; in the assay on HT29 colon, 0.279 µM; in the assay on CCRF-CEM leukemia, 0.365 µM; in the assay on SK-MEL-2 melanoma it was 0.482 µM; with OVCAR-3 ovarian, 0.379 µM; with RXF 393 renal it was 0.398 µM. In addition, the values for the GI50 in the assay with U251 CNS and in the assay with SF-295 CNS were 0.32 µM and 0.591 µM, respectively. For the same compound, the TGI with MDA-MB-435 was found to be 1.24 µM; in the assay with HT29 colon, 1.29 µM; in the assay on CCRF-CEM leukemia, 2.24 µM; in the assay with SK-MEL-2 melanoma it was 1.61 µM; with OVCAR-3 ovarian, 1.62 µM; in the assay on RXF 393 renal it was 1.55 µM. Besides, the results for the TGI in the assay on U251 CNS and in the assay with SF-295 CNS were 1.38 µM and 2.18 µM, respectively.

Turning to `COc1ccc(-c2c(NC(=O)Nc3ccc(Cl)c(C(F)(F)F)c3)cnn2-c2ccc(S(N)(=O)=O)cc2)cc1`, the GI50 in the assay with MDA-MB-435 is 2.77 µM; in the assay on HT29 colon it was 3.59 µM; with CCRF-CEM leukemia it was 3 µM; in the assay with SK-MEL-2 melanoma it was 2.42 µM; in the assay on OVCAR-3 ovarian it was 2.4 µM; in the assay on RXF 393 renal it was 2.6 µM. Also, the GI50 in the assay on U251 CNS was 3.3 µM; in the assay with SF-295 CNS, 2.72 µM. The TGI in the assay on MDA-MB-435 was determined as 9.6 µM; in the assay with HT29 colon, 10.9 µM; in the assay with CCRF-CEM leukemia it was 11.3 µM; in the assay on SK-MEL-2 melanoma it was 5.52 µM; with OVCAR-3 ovarian, 6.53 µM; in the assay with RXF 393 renal, 9.83 µM. For the same compound, the TGI was found to be 12.3 µM with U251 CNS and 10.9 µM in the assay with SF-295 CNS.

Turning to `FC(F)(F)c1cccc(Oc2ccc(Nc3ncnc4ccc(OCCCN5CCOCC5)cc34)cc2Cl)c1`, the GI50 was 1.63 µM in the assay with MDA-MB-435; 1.75 µM with HT29 colon; 2.77 µM with CCRF-CEM leukemia; 2.54 µM in the assay with SK-MEL-2 melanoma; 1.46 µM in the assay on OVCAR-3 ovarian; 1.76 µM with RXF 393 renal. Besides, the results for the GI50 with U251 CNS and in the assay with SF-295 CNS were 1.9 µM and 1.75 µM, respectively. In addition, the TGI with MDA-MB-435 amounted to 3.39 µM; in the assay on HT29 colon it was 3.93 µM; in the assay with CCRF-CEM leukemia it was 11.2 µM; in the assay on SK-MEL-2 melanoma it was 6.1 µM; in the assay with OVCAR-3 ovarian it was 3.56 µM; with RXF 393 renal, 4.03 µM. The TGI was 4.19 µM with U251 CNS and 3.49 µM with SF-295 CNS.

In the case of `Oc1c(CN2CCCCC2)ccc2cccnc12`, the GI50 was 4.65 µM in the assay on MDA-MB-435; 4.88 µM in the assay with HT29 colon; 3.21 µM in the assay with CCRF-CEM leukemia; 4.03 µM with SK-MEL-2 melanoma; 2.41 µM with OVCAR-3 ovarian; 4.15 µM in the assay with RXF 393 renal. Further, the values for the GI50 with U251 CNS and with SF-295 CNS were 3.61 µM and 2.69 µM, respectively. In addition, the TGI was 21.4 µM in the assay on MDA-MB-435; 19.6 µM in the assay with HT29 colon; over 100 µM in the assay on CCRF-CEM leukemia; 24.4 µM in the assay on SK-MEL-2 melanoma; 8.22 µM in the assay with OVCAR-3 ovarian; 34.8 µM with RXF 393 renal. The TGI in the assay with U251 CNS was found to be 30.9 µM; in the assay on SF-295 CNS, 15.4 µM.

As to `Cn1cc(-c2ncnc3ccc(-c4cnc(Cl)c(NS(C)(=O)=O)c4)cc23)c2ccccc21`, the GI50 with MDA-MB-435 is 0.514 µM; in the assay with HT29 colon it was 0.541 µM; with CCRF-CEM leukemia it was 0.687 µM; with SK-MEL-2 melanoma, 1.16 µM; in the assay on OVCAR-3 ovarian, 0.617 µM; in the assay with RXF 393 renal it was 0.435 µM. Further, the values for the GI50 in the assay with U251 CNS and in the assay on SF-295 CNS were 1.65 µM and 0.298 µM, respectively. Further, the TGI in the assay on MDA-MB-435 was 10.8 µM; in the assay on HT29 colon, over 100 µM; in the assay with CCRF-CEM leukemia, over 62.7 µM; in the assay on SK-MEL-2 melanoma it was 4.85 µM; in the assay on OVCAR-3 ovarian, 13.8 µM; in the assay on RXF 393 renal, 4.05 µM. The TGI in the assay on U251 CNS stood at 23.4 µM; with SF-295 CNS, 3.82 µM.
